Source: the supplement of paper PMC11665569

What was measured:
H1792 = conditions: siRNA knockdown (Con = control): Con; treatment time: 5 days
Method: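 CCK-8 viability of KRAS G12C-mutant cancer cell lines transfected with control, YAP/TAZ or TEAD1-4 siRNAs and treated with KRAS G12C inhibitors for 5 days; IC50 fitted in Prism after normalising absorbance at 450 nm to vehicle control.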

SW1573 = test: relative viability (fraction of vehicle control); higher = more viable / less inhibited; conditions: treatment time: 5 days
Method: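 CCK-8 viability of SW1573 cells transfected with control, YAP/TAZ or TEAD1-4 siRNAs and treated with KRAS G12C inhibitors for 5 days. Values are normalised to vehicle control.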

H1373 = test: as above; conditions: treatment time: 5 days
Method: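 CCK-8 viability of H1373 cells with empty vector or constitutively active YAP S127A, treated with KRAS G12C inhibitors for 5 days, normalised to vehicle control.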

KYSE410 = test: as above; conditions: treatment time: 5 days
Method: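 CCK-8 viability of KYSE410 cells transfected with control, YAP/TAZ or TEAD1-4 siRNAs and treated with KRAS G12C inhibitors for 5 days. Values are normalised to vehicle control.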

H358 = test: as above; conditions: treatment time: 5 days
Method: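 CCK-8 viability of H358 cells with empty vector or constitutively active YAP S127A, treated with KRAS G12C inhibitors for 5 days. Absorbance at 450 nm normalised to vehicle control.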

C=CC(=O)N1CCN(c2nc(=O)n(-c3c(C)ccnc3C(C)C)c3nc(-c4c(O)cccc4F)c(F)cc23)[C@@H](C)C1 [AMG510]
Conditions | IC50 (cell viability, 5 days) [µM]
H1792 | 6.33

relative viability
Conditions | H358 | H1373 | KYSE410 | SW1573
log10 concentration (uM): 0, ectopic expression: YAP S127A | 0.42 | 0.575 | – | –
log10 concentration (uM): 0, ectopic expression: empty vector (YAP experiment) | 0.15 | 0.267 | – | –
log10 concentration (uM): 0, siRNA knockdown: TEAD1-4 siRNA 1 | – | – | 0.586 | 0.313
log10 concentration (uM): 0, siRNA knockdown: TEAD1-4 siRNA 2 | – | – | 0.488 | 0.433
log10 concentration (uM): 0, siRNA knockdown: YAP/TAZ siRNA 1 | – | – | 0.416 | 0.262
log10 concentration (uM): 0, siRNA knockdown: YAP/TAZ siRNA 2 | – | – | 0.353 | 0.182
log10 concentration (uM): 0, siRNA knockdown: negative control siRNA | – | – | 0.695 | 0.809
log10 concentration (uM): 1, ectopic expression: YAP S127A | 0.46 | 0.47 | – | –
log10 concentration (uM): 1, ectopic expression: empty vector (YAP experiment) | 0.183 | 0.245 | – | –
log10 concentration (uM): 1, siRNA knockdown: TEAD1-4 siRNA 1 | – | – | 0.181 | 0.397
log10 concentration (uM): 1, siRNA knockdown: TEAD1-4 siRNA 2 | – | – | 0.118 | 0.515
log10 concentration (uM): 1, siRNA knockdown: YAP/TAZ siRNA 1 | – | – | 0.141 | 0.554
log10 concentration (uM): 1, siRNA knockdown: YAP/TAZ siRNA 2 | – | – | 0.137 | 0.357
log10 concentration (uM): 1, siRNA knockdown: negative control siRNA | – | – | 0.382 | 0.782
log10 concentration (uM): 1.301029996, ectopic expression: YAP S127A | 0.327 | 0.25 | – | –
log10 concentration (uM): 1.301029996, ectopic expression: empty vector (YAP experiment) | 0.172 | 0.12 | – | –
log10 concentration (uM): 1.301029996, siRNA knockdown: TEAD1-4 siRNA 1 | – | – | 0.0525 | 0.138
log10 concentration (uM): 1.301029996, siRNA knockdown: TEAD1-4 siRNA 2 | – | – | 0.0471 | 0.288
log10 concentration (uM): 1.301029996, siRNA knockdown: YAP/TAZ siRNA 1 | – | – | 0.0378 | 0.337
log10 concentration (uM): 1.301029996, siRNA knockdown: YAP/TAZ siRNA 2 | – | – | 0.0518 | 0.257
log10 concentration (uM): 1.301029996, siRNA knockdown: negative control siRNA | – | – | 0.164 | 0.461
log10 concentration (uM): -1, ectopic expression: YAP S127A | 0.453 | 0.581 | – | –
log10 concentration (uM): -1, ectopic expression: empty vector (YAP experiment) | 0.256 | 0.351 | – | –
log10 concentration (uM): -1, siRNA knockdown: TEAD1-4 siRNA 1 | – | – | 0.691 | 0.338
log10 concentration (uM): -1, siRNA knockdown: TEAD1-4 siRNA 2 | – | – | 0.63 | 0.365
log10 concentration (uM): -1, siRNA knockdown: YAP/TAZ siRNA 1 | – | – | 0.59 | 0.164
log10 concentration (uM): -1, siRNA knockdown: YAP/TAZ siRNA 2 | – | – | 0.489 | 0.111
log10 concentration (uM): -1, siRNA knockdown: negative control siRNA | – | – | 0.749 | 0.783
log10 concentration (uM): -1.30103, ectopic expression: YAP S127A | 0.52 | 0.619 | – | –
log10 concentration (uM): -1.30103, ectopic expression: empty vector (YAP experiment) | 0.433 | 0.407 | – | –
log10 concentration (uM): -1.30103, siRNA knockdown: TEAD1-4 siRNA 1 | – | – | 0.727 | 0.346
log10 concentration (uM): -1.30103, siRNA knockdown: TEAD1-4 siRNA 2 | – | – | 0.664 | 0.421
log10 concentration (uM): -1.30103, siRNA knockdown: YAP/TAZ siRNA 1 | – | – | 0.643 | 0.183
log10 concentration (uM): -1.30103, siRNA knockdown: YAP/TAZ siRNA 2 | – | – | 0.522 | 0.147
log10 concentration (uM): -1.30103, siRNA knockdown: negative control siRNA | – | – | 0.775 | 0.792
log10 concentration (uM): -2, ectopic expression: YAP S127A | 0.727 | 0.636 | – | –
log10 concentration (uM): -2, ectopic expression: empty vector (YAP experiment) | 0.822 | 0.624 | – | –
log10 concentration (uM): -2, siRNA knockdown: TEAD1-4 siRNA 1 | – | – | 0.946 | 0.562
log10 concentration (uM): -2, siRNA knockdown: TEAD1-4 siRNA 2 | – | – | 1.02 | 0.502
log10 concentration (uM): -2, siRNA knockdown: YAP/TAZ siRNA 1 | – | – | 0.841 | 0.323
log10 concentration (uM): -2, siRNA knockdown: YAP/TAZ siRNA 2 | – | – | 0.713 | 0.244
log10 concentration (uM): -2, siRNA knockdown: negative control siRNA | – | – | 0.884 | 0.886
log10 concentration (uM): -2.30103, ectopic expression: YAP S127A | 0.753 | 0.71 | – | –
log10 concentration (uM): -2.30103, ectopic expression: empty vector (YAP experiment) | 0.822 | 0.68 | – | –
log10 concentration (uM): -2.30103, siRNA knockdown: TEAD1-4 siRNA 1 | – | – | 0.967 | 0.672
log10 concentration (uM): -2.30103, siRNA knockdown: TEAD1-4 siRNA 2 | – | – | 0.941 | 0.725
log10 concentration (uM): -2.30103, siRNA knockdown: YAP/TAZ siRNA 1 | – | – | 0.929 | 0.437
log10 concentration (uM): -2.30103, siRNA knockdown: YAP/TAZ siRNA 2 | – | – | 0.7753 | 0.37
log10 concentration (uM): -2.30103, siRNA knockdown: negative control siRNA | – | – | 0.9373 | 0.934
log10 concentration (uM): -3, ectopic expression: YAP S127A | 0.96 | 0.834 | – | –
log10 concentration (uM): -3, ectopic expression: empty vector (YAP experiment) | 0.828 | 0.937 | – | –
log10 concentration (uM): -3, siRNA knockdown: TEAD1-4 siRNA 1 | – | – | 1.21 | 0.815
log10 concentration (uM): -3, siRNA knockdown: TEAD1-4 siRNA 2 | – | – | 1.19 | 0.893
log10 concentration (uM): -3, siRNA knockdown: YAP/TAZ siRNA 1 | – | – | 0.996 | 0.615
log10 concentration (uM): -3, siRNA knockdown: YAP/TAZ siRNA 2 | – | – | 0.961 | 0.587
log10 concentration (uM): -3, siRNA knockdown: negative control siRNA | – | – | 0.953 | 1
log10 concentration (uM): -4, ectopic expression: YAP S127A | 0.873 | 0.986 | – | –
log10 concentration (uM): -4, ectopic expression: empty vector (YAP experiment) | 1.01 | 1.01 | – | –
log10 concentration (uM): -4, siRNA knockdown: TEAD1-4 siRNA 1 | – | – | 1.08 | 0.98
log10 concentration (uM): -4, siRNA knockdown: TEAD1-4 siRNA 2 | – | – | 1.32 | 0.974
log10 concentration (uM): -4, siRNA knockdown: YAP/TAZ siRNA 1 | – | – | 1.03 | 0.969
log10 concentration (uM): -4, siRNA knockdown: YAP/TAZ siRNA 2 | – | – | 0.998 | 0.928
log10 concentration (uM): -4, siRNA knockdown: negative control siRNA | – | – | 0.951 | 1.02
